Data on five molecules can be found in patent US7354588B1, “Functional derivatives of ICAM-1 with altered ability to bind LFA-1 or HRV” (Dana Farber Cancer Institute, priority 1987, dated 2008).

For assay [1], the system named is human peripheral blood mononuclear cells (responder and irradiated stimulator cells). Kind of assay: Mixed lymphocyte reaction (MLR), ^3HT incorporation. It counts as cell-based. The note with it: Table 19, R × S, R6-5-D6 8 ng/ml, Dex 50 ng/ml.
Assay [2] has as its system JY cells (LFA-1 dependent aggregation). Kind of assay: Qualitative aggregation assay (microtiter plate), PMA-induced JY cell aggregation. It counts as cell-based, human. Here is the method: In order to assess the extent of cellular adhesion, aggregation assays were employed. Cell lines used in such assays were washed two times with RPMI 1640 medium containing 5 mM Hepes buffer (Sigma Chemical Co., St. Louis) and resuspended to a concentration of 2×10^6 cells/ml. Added to flat-bottomed, 96-well microtiter plates (No. 3596; Costar, Cambridge, Mass.) were 50 μl of appropriate monoclonal antibody supernatant or 50 μl of complete medium with or without purified monoclonal antibodies, 50 μl of complete medium containing 200 ng/ml of the phorbol ester phorbol myristate acetate (PMA) and 100 μl of cells at a concentration of 2×10^6 cells/ml in complete medium. This yielded a final concentration of 50 ng/ml PMA and 2×10^5 cells/well. Cells were allowed to settle spontaneously, and the degree of aggregation was scored at various time points. […] In order to obtain a more quantitative estimate of cellular adhesion, reagents and cells were added to 5 ml polystyrene tubes in the same order as above. Tubes were placed in a rack on a gyratory shaker at 37° C. After 1 hour at approximately 200 rpm, 10 μl of the cell suspension was placed in a hemocytometer and the number of free cells was quantitated. Percent aggregation was determined by the following equation: […]
The qualitative aggregation assay described in Example 2 was performed using the Epstein-Barr transformed cell line JY. […]

The target in the next assay is ICAM-1-LFA-1 adhesion (Homo sapiens, UniProt P05107+P05362+P20701). The note with it: peptides; cited from earlier work.
The next assay concerns HRV14. Description: Binding of [^35S]-Met labeled HRV14 to COS cells expressing ICAM-1 mutants. It counts as cell-based, human rhinovirus 14.
A further assay concerns the target T1, LFA-1 on SKW-3 cells (Homo sapiens, UniProt P05107+P20701).
T1 construct: SKW-3 cells bearing LFA-1 on their surface; endogenous in cells; host or cells: SKW-3 T-lymphoma cells
Description: SKW-3 cell binding to ICAM-1 bound to plastic (solid phase). It counts as cell-based. The note with it: purified protein bound to 96-well plates. The text has this: The truncated ICAM-1 secreted from transfected cells was purified by immunoaffinity chromatography with an ICAM-1 specific antibody (R6-5-D6) and tested for functional activity in a cell binding assay. […] These preparations of ICAM-1 were allowed to bind to the surfaces of plastic 96-well plates (Nunc), to produce ICAM-1 bound to a solid-phase. After washing out unbound material, approximately 75-80% and 83-88% of SKW-3 cells bearing LFA-1 on their surface bound specifically to the native and to the truncated forms of ICAM-1, respectively.

For the next assay, the target named is T2, LFA-1 (Homo sapiens, UniProt P05107+P20701).
T2 construct: endogenous in cells
Description: Adherence of COS cells expressing ICAM-1 or ICAM-1 mutants to plastic-bound purified LFA-1. It is filed as cell-based.

T2 sequence (P20701 26-1170): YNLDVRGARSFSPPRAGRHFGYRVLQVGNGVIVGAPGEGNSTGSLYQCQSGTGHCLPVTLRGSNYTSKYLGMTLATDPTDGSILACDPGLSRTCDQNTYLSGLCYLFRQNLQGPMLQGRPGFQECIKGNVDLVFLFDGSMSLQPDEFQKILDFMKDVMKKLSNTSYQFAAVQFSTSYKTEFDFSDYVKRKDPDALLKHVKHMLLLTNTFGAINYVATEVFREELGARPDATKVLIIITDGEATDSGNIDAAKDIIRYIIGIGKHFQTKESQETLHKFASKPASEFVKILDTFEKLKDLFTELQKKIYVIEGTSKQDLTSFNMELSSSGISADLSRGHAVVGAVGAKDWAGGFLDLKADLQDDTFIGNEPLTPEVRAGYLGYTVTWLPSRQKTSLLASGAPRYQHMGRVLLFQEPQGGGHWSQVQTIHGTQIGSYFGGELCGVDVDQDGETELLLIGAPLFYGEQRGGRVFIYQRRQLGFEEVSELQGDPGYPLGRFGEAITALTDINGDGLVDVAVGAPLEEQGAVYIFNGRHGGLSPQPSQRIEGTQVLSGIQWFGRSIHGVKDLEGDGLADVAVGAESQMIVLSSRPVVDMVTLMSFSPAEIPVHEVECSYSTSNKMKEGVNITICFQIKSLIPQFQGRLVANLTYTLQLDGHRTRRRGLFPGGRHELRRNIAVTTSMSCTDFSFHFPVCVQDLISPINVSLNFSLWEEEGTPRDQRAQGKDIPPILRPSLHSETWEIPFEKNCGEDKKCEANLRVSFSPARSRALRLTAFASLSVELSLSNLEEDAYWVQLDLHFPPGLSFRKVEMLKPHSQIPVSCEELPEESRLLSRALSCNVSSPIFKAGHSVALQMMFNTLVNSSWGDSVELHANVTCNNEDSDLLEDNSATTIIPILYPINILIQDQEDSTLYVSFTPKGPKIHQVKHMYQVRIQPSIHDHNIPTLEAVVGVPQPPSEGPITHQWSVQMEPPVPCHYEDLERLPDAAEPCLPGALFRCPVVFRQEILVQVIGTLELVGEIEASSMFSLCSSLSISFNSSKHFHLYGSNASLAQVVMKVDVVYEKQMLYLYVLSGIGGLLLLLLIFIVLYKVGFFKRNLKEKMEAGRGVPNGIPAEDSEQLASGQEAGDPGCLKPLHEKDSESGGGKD
T2 sequence (P05107 23-769): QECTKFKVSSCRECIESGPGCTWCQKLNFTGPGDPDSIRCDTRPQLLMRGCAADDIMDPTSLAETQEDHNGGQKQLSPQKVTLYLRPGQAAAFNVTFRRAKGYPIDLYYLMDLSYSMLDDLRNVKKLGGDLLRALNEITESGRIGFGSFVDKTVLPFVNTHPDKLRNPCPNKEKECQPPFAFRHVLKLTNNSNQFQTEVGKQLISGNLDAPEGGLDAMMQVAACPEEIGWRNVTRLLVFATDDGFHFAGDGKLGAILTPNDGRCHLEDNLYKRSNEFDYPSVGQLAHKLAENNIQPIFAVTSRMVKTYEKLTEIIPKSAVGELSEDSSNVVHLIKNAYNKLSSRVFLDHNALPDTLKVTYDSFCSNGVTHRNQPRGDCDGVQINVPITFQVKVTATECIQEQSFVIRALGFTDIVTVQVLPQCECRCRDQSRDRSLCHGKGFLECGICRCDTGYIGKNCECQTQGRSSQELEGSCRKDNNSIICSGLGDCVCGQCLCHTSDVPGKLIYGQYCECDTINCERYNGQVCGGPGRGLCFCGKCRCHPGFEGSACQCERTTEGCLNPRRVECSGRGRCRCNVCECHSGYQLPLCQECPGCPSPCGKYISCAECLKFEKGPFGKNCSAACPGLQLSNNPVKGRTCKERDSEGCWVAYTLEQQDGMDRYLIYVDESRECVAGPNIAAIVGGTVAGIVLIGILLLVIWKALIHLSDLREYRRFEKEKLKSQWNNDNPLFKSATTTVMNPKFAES
Sequence of ICAM-1-LFA-1 adhesion (P20701 26-1170, one chain of several): as the sequence (P20701 26-1170) above
Sequence of ICAM-1-LFA-1 adhesion (P05107 23-769, one chain of several): as the sequence (P05107 23-769) above
T1 sequence (P20701 26-1170): as the sequence (P20701 26-1170) above
T1 sequence (P05107 23-769): as the sequence (P05107 23-769) above

Consider `C[C@@H]1C[C@H]2[C@@H]3CCC4=CC(=O)C=C[C@]4(C)[C@@]3(F)[C@@H](O)C[C@]2(C)[C@@]1(O)C(=O)CO` [Dex, Dexamethasone], for which testing at 0.05 µg/mL in assay [1] (Homo sapiens, PBMC) gave an inhibition of 59%. For the same molecule, the “^3HT Incorporation (CPM)” value in assay [1] (no inhibitor 34,199) was 14,158 CPM.

For the molecule `[Mg]` [magnesium], the “lowest concentration supporting PMA-induced JY cell aggregation” value stood at 0.02 millimolar in assay [2] (1.25 mM calcium ions added to the medium) and 0.3 mM in assay [2] (medium free of calcium ions).

Consider GRGDSP, for which, at ICAM-1-LFA-1 adhesion, the “inhibition of ICAM-1-LFA-1 adhesion” value is “failure”.

With GRGESP, the “inhibition of ICAM-1-LFA-1 adhesion” value at ICAM-1-LFA-1 adhesion was “failure”.

B1: Native ICAM-1: native (wild-type) Intercellular Adhesion Molecule-1, purified or expressed in COS cells (protein, UniProt P05362 28-532, looked up)
Intercellular adhesion …: QTSVSPSKVILPRGGSVLVTCSTSCDQPKLLGIETPLPKKELLLPGNNRKVYELSNVQEDSQPMCYSNCPDGQSTAKTFLTVYWTPERVELAPLPSWQPVGKNLTLRCQVEGGAPRANLTVVLLRGEKELKREPAVGEPAEVTTTVLVRRDHHGANFSCRTELDLRPQGLELFENTSAPYQLQTFVLPATPPQLVSPRVLEVDTQGTVVCSLDGLFPVSEAQVHLALGDQRLNPTVTYGNDSFSAKASVSVTAEDEGTQRLTCAVILGNQSQETLQTVTIYSFPAPNVILTKPEVSEGTEVTVKCEAHPRAKVTLNGVPAQPLGPRAQLLLKATPEDNGRSFSCSATLEVAGQLIHKNQTRELRVLYGPRLDERDCPGNWTWPENSQQTPMCQAWGNPLPELKCLKDGTFPLPIGESVTVTRDLEGTYLCRARSTQGEVTRKVTVNVLSPRYEIVIITVVAAAVIMGTAGLSTYLYNRQRKIKKYRLQQAQKGTPMKPNTQATPP
As to B1, the “Percent of [^35S] methionine-labeled HRV-14 which bound to COS cells, mean” value with HRV14 was 21%. In addition, the “Percent of [^35S] methionine-labeled HRV-14 which bound to COS cells, range over experiments” value in the assay with HRV14 (mock-transfected 0-4%) is reported as 6-43%. Further, the “SKW-3 cells bound specifically to plastic-bound ICAM-1” value with LFA-1 on SKW-3 cells was 75-80%. Further, the “Percent of ICAM-1 expressing COS cells that bound to LFA-1, mean” value with LFA-1 turned out to be 33%. Also, in the assay with LFA-1 (mock-transfected 0-1%), the “Percent of ICAM-1 expressing COS cells that bound to LFA-1, range over experiments” value is 11-63%. Besides, the “% of Cells Expressing ICAM-1 that Bind LFA-1 in the Presence of RR1/1” value with LFA-1 (transfected Cos cells, purified LFA-1 on plastic) is 0%.
